Earlier results on one compound are cited in patent US20060276412A1, “METHODS AND COMPOSITIONS FOR MANAGING PSYCHOTIC DISORDERS” (priority 2005, published 2006).

Test systems include histaminic receptors; serotonin receptors; dopamine receptors.
Common to all, as to settings: cited from earlier work
In data set [1] the test system is alpha-adrenergic receptors.

`O=C1Cc2cc(CCN3CCN(c4nsc5ccccc45)CC3)c(Cl)cc2N1` [ziprasidone]: the “affinity for alpha-adrenergic receptors” value in data set [1] was “high affinity”. In addition, in the data set on histaminic receptors, the “affinity for histaminic receptors” value is given as “medium affinity”. For the same compound, the “affinity for serotonin receptors” value in the data set with serotonin receptors is on record as “high affinity”. Besides, the “affinity for dopamine receptors” value with dopamine receptors is recorded as “high affinity”.
